The values below are quoted from earlier work in patent US20180255779A1, “TRIAZOLE FORMULATIONS” (Vive Crop Protection Inc., priority 2013, published 2018).

The term Solubility denotes the concentration that dissolves in the medium under given conditions.

Test in data set [1]: not given
This is another data set of the same source.

The conditions of data set [2]: octanol-water.

Read-outs that look alike come from different tables or passages of the source.

For `Fc1ccc([C@]2(Cn3cncn3)O[C@H]2c2ccccc2Cl)cc1` (racemic) [Epoxiconazole, (2RS,3SR)-1-[3-(2-chlorophenyl)-2,3-epoxy-2-(4-fluorophenyl)propyl]-1H-1,2,4-triazole], for the setting “pH 7”, the “Photolytic Stability, DT50” value is “DT50: 52 d (aqueous photolysis at pH 7)”. `CC(C1CC1)C(O)(Cn1cncn1)c1ccc(Cl)cc1` (stereo not drawn) [Cyproconazole, (2RS,3RS;2RS,3SR)-2-(4-chlorophenyl)-3-cyclopropyl-1-(1H-1,2,4-triazol-1-yl)butan-2-ol]: where the note is “pH 7”, the “Photolytic Stability, DT50” value is listed as “DT 50: 40 d (aqueous photolysis at pH 7)”. On to `CC1(C)CC/C(=C\c2ccc(Cl)cc2)C1(O)Cn1cncn1` (racemic) [Triticonazole, (RS)-(E)-5-(4-chlorobenzylidene)-2,2-dimethyl-1-(1H-1,2,4-triazol-1-ylmethyl)cyclopentanol], for which the “Photolytic Stability, DT50” value (pH 7) is given as “DT50: 3.1 d (aqueous photolysis at pH 7)”. Regarding `CCCCC(C#N)(Cn1cncn1)c1ccc(Cl)cc1` (racemic) [Myclobutanil, (RS)-2-(4-chlorophenyl)-2-(1H-1,2,4-triazol-1-ylmethyl)hexanenitrile], the “Photolytic Stability, DT50” value (aqueous photolysis at pH 7) was “DT50: 15 d (aqueous photolysis at pH 7)”. Moreover, the Solubility was 1020 mg/L (heptane at 20° C.) in data set [1] (heptane at 20° C.); 250000 mg/L (methanol and acetone, both at 20° C.) in data set [1] (methanol and acetone, both at 20° C.); 132 mg/L (water at 20° C.) in data set [1] (water at 20° C.). In data set [2], the “Kow, log P” value is recorded as “log P: 2.89”. Consider `FC(F)C(F)(F)OCC(Cn1cncn1)c1ccc(Cl)cc1Cl` (racemic) [Tetraconazole, (RS)-2-(2,4-dichlorophenyl)-3-(1H-1,2,4-triazol-1-yl)propyl 1,1,2,2-tetrafluoroethyl ether], for which, under “pH 7”, the “Photolytic Stability, DT50” value is 217 days. As for `CC1COC(Cn2cncn2)(c2ccc(Oc3ccc(Cl)cc3)cc2Cl)O1` (stereo not drawn) [Difenoconazole, 3-chloro-4-[(2RS,4RS;2RS,4SR)-4-methyl-2-(1H-1,2,4-triazol-1-ylmethyl)-1,3-dioxolan-2-yl]phenyl 4-chlorophenyl ether], in data set [2], the “Kow, log P” value is “log P: 4.36”. With `CCCC1COC(Cn2cncn2)(c2ccc(Cl)cc2Cl)O1` (stereo not drawn) [Propiconazole, (2RS,4RS;2RS,4SR)-1-[2-(2,4-dichlorophenyl)-4-propyl-1,3-dioxolan-2-ylmethyl]-1H-1,2,4-triazole], the results for the Solubility in data set [1] (heptane at 20° C.) and in data set [1] (water at 20° C.) were 1585 mg/L (heptane at 20° C.) and 150 mg/L (water at 20° C.), respectively. The “Kow, log P” value in data set [2] is on record as “log P: 3.72”.
